Test results reported in paper PMC8592623, “Enhanced oral bioavailability of koumine by complexation with hydroxypropyl-β-cyclodextrin: preparation, optimization, ex vivo and in vivo characterization” (Drug Delivery, 2021).
Values after ≈ are worked out from the molar mass of the structure shown.

What was measured:
[1] = Phase solubility study (Higuchi and Connors); assay type: physicochemical
Experimental: The phase solubility studies were carried out according to the method of Higuchi and Connors (Jansook et al. [2018]; Higuchi & Connors [1965]). Briefly, an excess of KME was added to 200 μL aqueous solutions of different HP-β-CD concentrations (1, 2, 4, 6, 8, and 10 mM). All samples were shaken at 25 °C and 100 rpm for 72 h until reaching equilibrium. Subsequently, the samples were withdrawn and filtered through a 0.45 µm membrane to remove undissolved KME. The concentration of KME in the HP-β-CD solutions was determined by an HPLC method, and the analyses were performed in triplicate (n = 3). The apparent stability constants (Ks) were calculated by the following equation (Nair et al. [2014]; Pinto et al. [2020]): Ks = slope/So (1-slope), where So represents the intrinsic solubility of the drug, and the slope is the slope of the linear KME-CD phase solubility diagram.

[2] = Cell viability study (CCK-8 assay); assay type: cell-based; conditions: human, Caco-2, 5–100 μg/mL, read-out: viability of Caco-2 cells
Experimental: The cytotoxicity of KME and KME/HP-β-CD was evaluated in Caco-2 cells using the cell counting kit-8 (CCK-8) assay. Caco-2 cells were cultured in DMEM containing 20% FBS and incubated at 37 °C with 5% CO2. Caco-2 cells (1 × 10^4 cell/well) were seeded in 96-well plates and incubated for 24 h. Then, 100 μL of fresh medium containing KME or KME/HP-β-CD (5–100 µg/mL) was added. After 24 h, the culture medium was changed with CCK-8 solution and the samples were incubated for another 2 h. The optical density (OD) was read at 490 nm (BioTek Instruments, Winooski).

[3] = set-up: method as in Wang et al. [2019]; conditions: from parameters of published reports; ref Wang et al. [2019]; cited from earlier work
[4] = In vivo pharmacokinetics study after oral administration; conditions: oral gavage 12 mg/kg, male SD rats, n = 6; for AUC0–12 (AUC0-t): 12 mg/kg
Experimental: The in vivo pharmacokinetic study was approved by the Institutional Animal Ethical Committee, Fujian Medical University, China. Male SD rats (200 ± 20 g) have fasted for 12 h with free access to water before oral administration. The rats were divided randomly into two groups (n = 6) and received KME or KME/HP-β-CD by oral gavage at a drug dose of 12 mg/kg. The KME powder and KME/HP-β-CD were dispersed in deionized water containing 0.1% sodium carboxymethylcellulose (CMC-Na). Blood samples were collected at predetermined intervals (0.05, 0.1, 0.16, 0.5, 1, 3, 6, 9, and 12 h) from the retroorbital venous sinus, and placed in heparinized anticoagulant tubes. After centrifugation at 4,000 rpm for 10 min at 4 °C, the plasma was separated and stored at −80 °C until UPLC-MS/MS analysis.
Plasma samples were prepared by the protein precipitation method (Chen et al. [2013]). Briefly, an aliquot of 50 μL plasma sample and 200 μL of acetonitrile containing 10 ng/mL gelsemine (internal standard, IS) were added to a centrifuge tube. The mixture was vortexed for 5 min and centrifuged at 18,000 rpm for 10 min at 4 °C. Then the supernatant was transferred and injected into the UPLC-MS/MS system for analysis. Chromatographic separation was performed using a UPLC instrument (Agilent 1290, Agilent Technologies, USA), equipped with a mass spectrometer (QTRAP® 5500, AB SCIEX, USA). The mass spectrometer detector was performed with multiple reactions monitoring scan mode at m/z 307.2 → 180.1 for KME and m/z 323.1 → 236.1 for IS. More detailed information about UPLC-MS/MS is provided in the supplementary material. The main pharmacokinetic parameters such as T1/2, Cmax, Tmax, and area under the curve (AUC), were determined using the non-compartmental model with DAS 3.2.1 software. The relative bioavailability F was calculated by the following equation: F(%) =(AUC0–t (inclusion complexes)/AUC0–t(KME)) × 100%

[5] = tested on: rat intestines (everted gut sac: duodenum, jejunum, ileum, colon); assay: Ex vivo everted gut sac experiments; assay type: in vitro ADME
Experimental: The protocol of the animal study was approved by the Institutional Animal Care and Use Committee of Fujian Medical University (permit number: SYXK (Min) 2018-0001), China. Male SD rats weighing 220–250 g were fasted overnight before the experiment and with free access to water. The everted gut sac method was carried out as in previously published reports with minor modifications (Tambe et al. [2019]). Rats were anesthetized and sacrificed, and the intestinal segments of interest were identified and dissected (duodenum, starting 1 cm from the stomach; jejunum, 10–18 cm from the stomach; ileum, starting 8 cm above the cecum; colon, 5 cm below the cecum) (Rong et al. [2013]).
Each obtained intestinal segment was immediately washed with ice-cold Krebs-Ringer (K-R) solution, and then turned out with a glass rod, and one end was ligated with a thread. After inserting the glass tube, the other open end of the everted sacs was also tightened. Then blank K-R solution (2.5 mL) was added to the everted gut sacs. The everted segments were preincubated in 50 mL of K-R solution at 37 °C for 5 min. […] After the experiment, the length of each intestinal segment was accurately measured, and the concentration of KME was measured by HPLC. The apparent permeability coefficient (Papp) values of KME were calculated by the following equation (Tambe et al. [2019]): […]

[6] = previously investigated in our laboratory; cited from earlier work
[7] = introduction, no reference given; cited from earlier work
[8] = previously investigated in our laboratory; cited from earlier work; remark: listed apart in the source
[9] = Saturation solubility in distilled water; assay type: physicochemical; conditions: 37 °C, saturated solution
Experimental: Excess KME and KME/HP-β-CD were added to distilled water to obtain a supersaturated solution (Arya & Raghav [2021]). The samples were shaken at 37 °C for 24 h and 100 rpm. After centrifugation, the supernatants were filtered through a 0.45 μm membrane and the solubility was determined (n = 3) with the validated HPLC method.

[10] = In vitro drug release, dialysis bag diffusion method; assay type: physicochemical; conditions: pH 6.8 phosphate buffer, 37 °C
Experimental: A dialysis bag diffusion method was used to evaluate in vitro drug release profiles of both KME and KME/HP-β-CD (Zhao et al. [2021]). 2 mg of KME was dispersed in water, and then transferred to a dialysis bag and placed in a beaker containing 40 mL of pH 6.8 phosphate buffer. The study was carried out at 37 ± 0.5 °C and a magnetic stirring speed of 100 rpm. Aliquots of approximately 4 mL were taken out at predetermined time intervals (10 min, 15 min, 30 min, 1 h, 2 h, 3 h, and 6 h) and replaced by the same volume of fresh buffer to maintain a constant volume of dissolution media during sampling. The samples were filtered and analyzed by HPLC.

[11] = Caco-2 permeability study; assay type: in vitro ADME; conditions: human, 50 μg/mL KME equivalent
Experimental: Caco-2 cells were seeded at a density of 5 × 10^5 cells/well on top of 12-well Transwell® polycarbonate filters, and cultured in a 5% CO2 incubator at 37 °C for 21 days. The medium was changed every 2 days in the first week, and then every day for the next two weeks. At the end of 21 days, a Millicell-ERS epithelial voltmeter (Merck, USA) was used to analyze the transepithelial electrical resistance (TEER) value of Caco-2 cells. Only monolayers with TEER values higher than 600 Ω·cm^2 can be used in subsequent transport experiments (Chen et al. [2018]).
To investigate the permeability of KME and KME/HP-β-CD inclusion complexes in Caco-2 cells, the apical to basal (A-B) and basal to apical (B-A) transport of KME was measured. After preincubation for 30 min with blank HBSS, 0.5 mL of HBSS medium containing KME or KME/HP-β-CD (equivalent KME concentration of 50 μg/mL) was added to the apical side in the A-B direction experiments, and 1.5 mL of fresh HBSS was added to the basolateral side of the inserts as the acceptor phase. In contrast, for the B-A direction experiments, 1.5 mL of HBSS medium containing KME or KME/HP-β-CD (equivalent KME concentration of 50 μg/mL) was added to the basolateral side, and 0.5 mL of fresh HBSS was added to the apical side of the inserts as the acceptor phase. The plates were incubated in a shaker at 37 °C. 100 μL of the sample were taken from the acceptor side at predetermined time intervals (30, 60, 90, and 120 min) and replaced by the same volume of fresh HBSS to maintain a constant volume. Finally, the obtained samples were analyzed by HPLC. The Papp values (cm/s) were determined using the following equation (McCartney et al. [2019]; Patel & Sawant [2019]): Papp=(dQ/dt)/(A×C0),where dQ/dt is the steady−state flux, A is the surface area of the monolayer (1.12 cm^2), and C0 is the donor concentration (50 μg/mL). TEER (Ω·cm^2)=(TEER (Ω) –TEER blank (Ω)) × A(cm^2)
Here, TEER (Ω), Caco-2 monolayers; TEER blank (Ω), the insert without cells; A (cm^2), 1.12 cm^2.

C=C[C@@]12CN(C)[C@H]3C[C@]14C(=Nc1ccccc14)[C@H]1C[C@@H]2[C@@H]3CO1 [KME, Koumine]
solubility at 72 h ([1]; 10 mM HP-β-CD aqueous solution, 25 °C, 72 h, read-out: solubility of KME at 10 mM HP-β-CD): 1810 µg/mL (≈ 5910 µM)
increase of KME solubility at 10 mM HP-β-CD ([1]; 10 mM HP-β-CD versus water): 2.59 fold
solubility thermodynamic at 72 h ([1]; water, 25 °C, 72 h, no HP-β-CD, read-out: equilibrium solubility of KME in water): 700 ± 20 µg/mL (≈ 2280 µM)
viability at 24 h [2]: > 90%
absolute bioavailability (Fabs) [3]: 1%
AUC0–12 (AUC0-t) ([4]; listed as KME suspension): 72.50 ± 15.25 ng·h/mL
AUC0–12 (AUC0-t) ([4]; listed as Raw KME): 26.48 ± 17.80 ng·h/mL
AUC(0-inf) ([4]; rat, plasma): 30.2 ± 16.6 ng·h/mL
Cmax ([4]; rat, plasma): 22.8 ± 15.6 ng/mL
Tmax ([4]; rat, plasma): 19.8 ± 12 min
half-life ([4]; rat, plasma): 51.6 ± 7.2 min
order of absorption flux in the intestinal segments ([5]; 100 μg/mL, up to 120 min): ileum > duodenum > jejunum > colon
KME absorption in colon segment with verapamil versus without ([5]; colon, verapamil 100 μg/mL (inhibitor of P-gp)): no significant difference
absolute bioavailability (Fabs) in rats [6]: 14.30%
solubility in water [7]: < 1000 µg/mL
absolute bioavailability (Fabs) in beagle dogs [8]: 5.67%
solubility at 24 h [9]: 700 µg/mL (≈ 2280 µM)
release rate in the first 1 h ([10]; 1 h): 40%
release rate within 6 h ([10]; 6 h): 70%
efflux ratio at 120 min, 50 µg/mL ([11]; read-out: efflux ratio (B-A permeability/A-B permeability)): 1.74
Papp A→B at 120 min, 50 µg/mL ([11]; apical to basal, 120 min): 7.78 ± 2.01 ×10⁻⁶ cm/s
Papp B→A at 120 min, 50 µg/mL ([11]; basal to apical, 120 min): 13.5 ± 1.72 ×10⁻⁶ cm/s
